What follows are cell lines tested with O=C(/C=C/c1ccccc1)NC(NC(=S)Nc1cccc2cccnc12)C(Cl)(Cl)Cl [Salubrinal] + COc1cc2c(Oc3ccc(NC(=O)C4(C(=O)Nc5ccc(F)cc5)CC4)cc3F)ccnc2cc1OCCCN1CCOCC1 [Foretinib] (partner 0.25 µM) (assay: relative viability (nuclei count vs DMSO), 5 days (fraction); higher = more cells survive). Details: first compound 8 µM.
Outline: (§1)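 The day after seeding in 1536-well plates, lung cancer cell lines were treated by pin tool with a single drug, or with a fixed anchor-drug dose together with five library-drug doses (not always all listed) in √10 steps. After 5 days, a combined fix-and-stain solution (final 0.05% Triton X-100, 1% formaldehyde, 1 ug/ml Hoechst) was added. Nuclei counted on 4× images gave relative viability as treated counts over vehicle counts, reported as the median of duplicate plates.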

In order of falling relative viability:
1. NCI-H650  1.05
2. ABC-1  0.886
3. NCI-H1563  0.866

These cell lines were tested with O=C(/C=C/c1ccccc1)NC(NC(=S)Nc1cccc2cccnc12)C(Cl)(Cl)Cl [Salubrinal] + Nc1nc2[nH]cc(CCc3ccc(C(=O)N[C@@H](CCC(=O)O)C(=O)O)cc3)c2c(=O)[nH]1 [Pemetrexed] (partner 0.2 µM) in the same assay as above. Details: first compound 0.08 µM.
Outline: as §1

In order of falling relative viability:
1. COR-L 105  1.25
2. NCI-H522  1.24
3. NCI-H1793  1.13
4. NCI-H1792  1.07
5. NCI-H2085  1.03
6. NCI-H650  1.03
7. SW 1573  0.952
8. NCI-H661  0.942
9. NCI-H1648  0.843
10. NCI-H1666  0.837
11. NCI-H520  0.762
12. NCI-H2342  0.722
13. LOU-NH91  0.708
14. NCI-H2126  0.676
15. NCI-H1563  0.671
16. NCI-H1993  0.666
17. NCI-H2087  0.649
18. HCC-44  0.641
19. H3255  0.562
20. SW 900  0.508
21. NCI-H596  0.493
22. LCLC-103H  0.439
23. EMC-BAC-2  0.42
24. NCI-H1650  0.354
25. LK-2  0.321
26. ChaGo-K-1  0.266
27. NCI-H2170  0.258
28. NCI-H838  0.253
29. COR-L23  0.203
30. HCC-366  0.194
31. NCI-H358  0.181

Same assay, conditions: first compound 0.253 µM

In order of falling relative viability:
1. NCI-H650  1.14
2. NCI-H522  0.933
3. NCI-H2085  0.88
4. COR-L 105  0.831
5. NCI-H1793  0.81
6. NCI-H661  0.808
7. NCI-H1666  0.804
8. NCI-H2342  0.772
9. NCI-H1563  0.761
10. HCC-44  0.708
11. NCI-H2126  0.683
12. NCI-H1648  0.637
13. NCI-H1993  0.596
14. SW 1573  0.586
15. H3255  0.582
16. LCLC-103H  0.539
17. NCI-H2087  0.532
18. NCI-H520  0.523
19. NCI-H596  0.518
20. EMC-BAC-2  0.441
21. SW 900  0.423
22. LOU-NH91  0.368
23. NCI-H1650  0.3
24. ChaGo-K-1  0.274
25. NCI-H2170  0.273
26. LK-2  0.24
27. NCI-H838  0.231
28. COR-L23  0.205
29. NCI-H358  0.176

Same assay, conditions: first compound 0.8 µM

In order of falling relative viability:
1. COR-L 105  1.24
2. NCI-H1793  1.24
3. NCI-H1792  1.24
4. NCI-H522  1.09
5. NCI-H650  1.05
6. NCI-H1666  0.989
7. SW 1573  0.941
8. NCI-H2342  0.937
9. NCI-H661  0.936
10. NCI-H2085  0.923
11. NCI-H1563  0.907
12. NCI-H520  0.777
13. NCI-H1648  0.759
14. NCI-H2126  0.747
15. NCI-H2087  0.699
16. HCC-44  0.66
17. NCI-H596  0.56
18. H3255  0.558
19. NCI-H1993  0.524
20. LCLC-103H  0.506
21. SW 900  0.505
22. LOU-NH91  0.5
23. LK-2  0.463
24. EMC-BAC-2  0.459
25. NCI-H1650  0.398
26. NCI-H2170  0.318
27. NCI-H838  0.257
28. ChaGo-K-1  0.241
29. COR-L23  0.194
30. HCC-366  0.165
31. NCI-H358  0.157

Same assay, conditions: first compound 2.53 µM

In order of falling relative viability:
1. NCI-H522  1.06
2. NCI-H650  1.05
3. COR-L 105  1.04
4. NCI-H2085  0.941
5. NCI-H661  0.89
6. NCI-H1666  0.864
7. NCI-H1793  0.805
8. NCI-H1792  0.795
9. NCI-H1563  0.784
10. NCI-H2342  0.758
11. NCI-H520  0.716
12. NCI-H2126  0.708
13. NCI-H1648  0.705
14. HCC-44  0.698
15. SW 1573  0.69
16. NCI-H2087  0.644
17. H3255  0.557
18. NCI-H596  0.509
19. SW 900  0.485
20. EMC-BAC-2  0.473
21. LCLC-103H  0.461
22. NCI-H1650  0.383
23. LOU-NH91  0.343
24. LK-2  0.335
25. NCI-H838  0.267
26. NCI-H2170  0.258
27. ChaGo-K-1  0.253
28. COR-L23  0.206
29. HCC-366  0.153
30. NCI-H358  0.153

Same assay, conditions: first compound 8 µM

In order of rising relative viability:
1. HCC-366  0.161
2. NCI-H358  0.168
3. COR-L23  0.196
4. NCI-H838  0.23
5. LK-2  0.254
6. NCI-H2170  0.257
7. LOU-NH91  0.371
8. ChaGo-K-1  0.375
9. NCI-H1650  0.376
10. LCLC-103H  0.457
11. NCI-H596  0.466
12. SW 900  0.468
13. EMC-BAC-2  0.478
14. NCI-H1792  0.572
15. NCI-H1993  0.573
16. NCI-H1648  0.584
17. H3255  0.604
18. NCI-H2126  0.626
19. NCI-H2087  0.63
20. HCC-44  0.662
21. NCI-H520  0.734
22. SW 1573  0.742
23. NCI-H1793  0.76
24. NCI-H1563  0.798
25. NCI-H2342  0.826
26. NCI-H1666  0.845
27. NCI-H2085  0.867
28. NCI-H650  0.895
29. NCI-H661  0.91
30. NCI-H522  1.07
31. COR-L 105  1.09

Source: the supplement of paper PMC10307832
